Measurements published in ChEMBL document CHEMBL1201862, “PubChem BioAssay data set” (2004).
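Interpolation was linear, between the two tested concentrations surrounding the appropriate level; five concentrations were tested over 48 hours in 96-well plates. GI50 marks 50% less growth.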 Activity calls are given as the source filed them. No stated cut-off is given here; in the data, active = GI50 up to about 1.1 µM and inactive = higher.

Key:
Assay in all cases: DTP human tumour cell line panel, 48 h
A549 = test system: A549
ACHN = test system: ACHN
CCRF-CEM = test system: CCRF-CEM
DLD-1 = test system: DLD-1
HCT-116 = test system: HCT-116
HL-60 = test system: HL-60
IGROV-1 = test system: IGROV-1
KM-20L2 = test system: KM-20L2
MDA-N = test system: MDA-N
NCI-H226 = test system: NCI-H226
NCI/ADR-RES = test system: NCI/ADR-RES
OVCAR-5 = test system: OVCAR-5
SF-268 = test system: SF-268
SK-MEL-28 = test system: SK-MEL-28
SK-OV-3 = test system: SK-OV-3
SN12C = test system: SN12C
SR = test system: SR
TK-10 = test system: TK-10
UACC-257 = test system: UACC-257
UO-31 = test system: UO-31

Compound | GI50 (A549) | GI50 (ACHN) | GI50 (CCRF-CEM) | GI50 (DLD-1) | GI50 (HCT-116) | GI50 (HL-60) | GI50 (IGROV-1) | GI50 (KM-20L2) | GI50 (MDA-N) | GI50 (NCI-H226) | GI50 (NCI/ADR-RES) | GI50 (OVCAR-5) | GI50 (SF-268) | GI50 (SK-MEL-28) | GI50 (SK-OV-3) | GI50 (SN12C) | GI50 (SR) | GI50 (TK-10) | GI50 (UACC-257) | GI50 (UO-31)
CC[C@@]1(O)C(=O)OCc2c1c(Cl)c1n(c2=O)Cc2cc3ccccc3nc2-1 | 2.06 µM (inactive) | 1.16 µM (inactive) | 0.372 µM (active) | 6.68 µM (inactive) | 1.36 µM (inactive) | 2.19 µM (inactive) | 4.08 µM (inactive) | 4.47 µM (inactive) | 7.24 µM (inactive) | 2.14 µM (inactive) | 1.8 µM (inactive) | 5.07 µM (inactive) | 1.31 µM (inactive) | 10.4 µM (inactive) | 4.24 µM (inactive) | 2.7 µM (inactive) | 0.27 µM (active) | 19 µM (inactive) | 2.39 µM (inactive) | 1.26 µM (inactive)
Cn1c2ccccc2c(=O)c2c(O)cc3c(c21)CC(C1(C)CO1)O3 (stereo not given) | 5.16 µM (inactive) | 2 µM (inactive) | 0.056 µM (active) | 3.64 µM (inactive) | 0.935 µM (active) | 0.0495 µM (active) | 5.87 µM (inactive) | 4.66 µM (inactive) | 1.38 µM (inactive) | 13.3 µM (inactive) | 1.32 µM (inactive) | 6.53 µM (inactive) | 0.942 µM (active) | 2.79 µM (inactive) | 5.53 µM (inactive) | 1.42 µM (inactive) | 0.111 µM (active) | 11.4 µM (inactive) | 3.93 µM (inactive) | 1.42 µM (inactive)
